Measured values reported in the supplement of paper PMC10307832.

Experiments:
Experiment in all cases: relative viability (nuclei count vs DMSO), 5 days (fraction); higher = more cells survive
Olaparib + Trametinib = compound: O=C(c1cc(Cc2n[nH]c(=O)c3ccccc23)ccc1F)N1CCN(C(=O)C2CC2)CC1 [Olaparib] + CC(=O)Nc1cccc(-n2c(=O)n(C3CC3)c(=O)c3c(Nc4ccc(I)cc4F)n(C)c(=O)c(C)c32)c1 [Trametinib] (partner 0.02 µM)
Method in brief: (§1)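 Each reported value is a median over duplicate plates. It expresses relative viability: treated-well nuclei count divided by vehicle-well nuclei count. Lung cancer cell lines in 1536-well plates were dosed by pin tool a day after seeding, alone with one drug or with a fixed anchor-drug dose plus five library-drug doses (not always all listed) in √10 steps, and nuclei were counted after 5 days.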

Carfilzomib + Trametinib = compound: CC(C)C[C@H](NC(=O)[C@H](CCc1ccccc1)NC(=O)CN1CCOCC1)C(=O)N[C@@H](Cc1ccccc1)C(=O)N[C@@H](CC(C)C)C(=O)[C@@]1(C)CO1 [Carfilzomib] + CC(=O)Nc1cccc(-n2c(=O)n(C3CC3)c(=O)c3c(Nc4ccc(I)cc4F)n(C)c(=O)c(C)c32)c1 [Trametinib] (partner 0.02 µM)
Method in brief: as §1

Carfilzomib + Crizotinib = compound: CC(C)C[C@H](NC(=O)[C@H](CCc1ccccc1)NC(=O)CN1CCOCC1)C(=O)N[C@@H](Cc1ccccc1)C(=O)N[C@@H](CC(C)C)C(=O)[C@@]1(C)CO1 [Carfilzomib] + C[C@@H](Oc1cc(-c2cnn(C3CCNCC3)c2)cnc1N)c1c(Cl)ccc(F)c1Cl [Crizotinib] (partner 1 µM)
Method in brief: as §1

Crizotinib + Phenformin = compound: C[C@@H](Oc1cc(-c2cnn(C3CCNCC3)c2)cnc1N)c1c(Cl)ccc(F)c1Cl [Crizotinib] + N=C(N)NC(=N)NCCc1ccccc1 [Phenformin] (partner 250 µM)
Method in brief: as §1

Cell Line | relative viability (Olaparib + Trametinib; first compound 0.08 µM) | relative viability (Olaparib + Trametinib; first compound 0.253 µM) | relative viability (Olaparib + Trametinib; first compound 2.53 µM) | relative viability (Olaparib + Trametinib; first compound 8 µM) | relative viability (Carfilzomib + Trametinib; first compound 0.001 µM) | relative viability (Carfilzomib + Trametinib; first compound 0.003162 µM) | relative viability (Carfilzomib + Trametinib; first compound 0.01 µM) | relative viability (Carfilzomib + Trametinib; first compound 0.03162 µM) | relative viability (Carfilzomib + Trametinib; first compound 0.1 µM) | relative viability (Carfilzomib + Crizotinib; first compound 0.001 µM) | relative viability (Carfilzomib + Crizotinib; first compound 0.003162 µM) | relative viability (Carfilzomib + Crizotinib; first compound 0.01 µM) | relative viability (Carfilzomib + Crizotinib; first compound 0.03162 µM) | relative viability (Carfilzomib + Crizotinib; first compound 0.1 µM) | relative viability (Crizotinib + Phenformin; first compound 0.01 µM) | relative viability (Crizotinib + Phenformin; first compound 0.03162 µM) | relative viability (Crizotinib + Phenformin; first compound 0.1 µM) | relative viability (Crizotinib + Phenformin; first compound 0.3162 µM) | relative viability (Crizotinib + Phenformin; first compound 1 µM)
LOU-NH91 | 0.862 | 0.782 | 0.793 | 0.825 | 0.831 | 0.81 | 0.818 | 0.389 | 0.33 | 0.818 | 0.798 | 0.77 | 0.434 | 0.277 | 0.684 | 0.756 | 0.788 | 0.706 | 0.683
NCI-H1755 | 0.728 | 0.738 | 0.784 | 0.725 | 0.809 | 0.837 | 0.668 | 0.769 | 0.511 | 0.817 | 0.904 | 0.894 | 0.498 | 0.189 | 0.593 | 0.681 | 0.643 | 0.527 | 0.569
NCI-H647 | 0.471 | 0.424 | 0.54 | 0.523 | 0.415 | 0.529 | 0.538 | 0.0767 | 0.0407 | 0.847 | 1.04 | 0.713 | 0.0319 | 0.0277 | 0.494 | 0.634 | 0.429 | 0.513 | 0.488
A549 | – | – | – | – | – | – | – | – | – | 0.802 | 0.776 | 0.743 | 0.182 | 0.0494 | 0.165 | 0.136 | 0.167 | 0.141 | 0.172
LCLC-103H | 0.669 | 0.689 | 0.679 | 0.652 | 0.688 | 0.643 | 0.72 | 0.642 | 0.557 | 1.03 | 1.01 | 1.07 | 0.888 | 0.204 | 0.348 | 0.313 | 0.337 | 0.328 | 0.294
NCI-H1437 | 0.535 | 0.469 | 0.503 | 0.504 | 0.497 | 0.568 | 0.637 | 0.312 | 0.194 | 0.915 | 1.04 | 0.898 | 0.835 | 0.184 | 0.278 | 0.306 | 0.3 | 0.272 | 0.345
NCI-H2170 | 0.937 | 0.925 | 0.883 | 0.8 | 0.931 | 0.921 | 0.863 | 0.868 | 0.25 | 1.1 | 1.32 | 1.33 | 0.528 | 0.2 | 0.394 | 0.443 | 0.419 | 0.428 | 0.423
HCC-15 | 0.422 | 0.387 | 0.39 | 0.353 | 0.367 | 0.426 | 0.432 | 0.372 | 0.17 | 0.765 | 0.85 | 0.844 | 0.545 | 0.185 | 0.444 | 0.475 | 0.479 | – | 0.42
NCI-H1648 | 0.455 | 0.513 | – | 0.418 | 0.685 | 0.566 | 0.592 | 0.394 | 0.261 | – | – | – | – | – | – | – | – | – | –
NCI-H661 | 0.602 | 0.5 | 0.569 | 0.525 | 0.642 | 0.635 | 0.599 | 0.526 | 0.276 | 0.861 | 0.971 | 1.01 | 0.985 | 0.867 | 0.257 | 0.269 | 0.285 | 0.266 | 0.264
NCI-H650 | 0.893 | 0.939 | 0.915 | 0.782 | 0.899 | 1.1 | 1.08 | 0.798 | 0.169 | 0.677 | 0.996 | 0.698 | 0.577 | 0.132 | 0.392 | 0.451 | 0.482 | 0.365 | 0.44
RERF-LC-KJ | 0.98 | 0.825 | 0.949 | 0.878 | 0.864 | 0.908 | 0.941 | 0.511 | 0.211 | 0.899 | 0.801 | 0.86 | 0.78 | 0.359 | – | 0.421 | 0.409 | 0.435 | 0.409
SK-LU-1 | 0.515 | 0.402 | 0.496 | 0.417 | 0.394 | 0.545 | 0.474 | 0.202 | 0.185 | 0.885 | 1.02 | 0.807 | 0.575 | 0.152 | 0.544 | 0.535 | 0.506 | 0.499 | 0.547
NCI-H1792 | 0.461 | 0.448 | 0.382 | 0.398 | – | 0.456 | 0.451 | 0.396 | 0.174 | 0.946 | 0.938 | 1.01 | 0.985 | 0.642 | – | 0.357 | 0.314 | – | 0.328
NCI-H1666 | 0.872 | 0.95 | 0.791 | 0.765 | 0.907 | 0.852 | 0.988 | 0.72 | 0.513 | 1.07 | 1.14 | 1.08 | 0.409 | 0.211 | 0.514 | 0.598 | 0.583 | 0.558 | 0.546
